# Experimental data as given in BindingDB's records for doi:10.1016/j.bmcl.2004.01.072 (Array Biopharma, 2004).
# Experiment: Inhibition of MDC-stimulated chemotaxis in transfected murine cell line expressing human chemokine receptor 4
row,EC50 [nM],SMILES
1,2000,"Cc1c(Cl)cccc1CNC(=O)C[C@H]1S[C@H](c2ccc(Cl)cc2Cl)N(CC(=O)NCCCN2CCCCC2)C1=O [2-[(2R,5R)-5-[(3-Chloro-2-methyl-benzylcarbamoyl)-methyl]-2-(2,4-dichloro-phenyl)-4-oxo-thiazolidin-3-yl]-N-(3-piperidin-1-yl-propyl)-acetamide]"
2,600,"C[C@@H](NC(=O)C[C@H]1S[C@H](c2ccc(Cl)cc2Cl)N(CC(=O)NCCCN2CCCCC2)C1=O)c1cccc2ccccc12 [2-{(2R,5R)-2-(2,4-Dichloro-phenyl)-5-[((R)-1-naphthalen-1-yl-ethylcarbamoyl)-methyl]-4-oxo-thiazolidin-3-yl}-N-(3-piperidin-1-yl-propyl)-acetamide]"
